Measurements: ChEMBL document CHEMBL4014318, “Rationalized Computer-Aided Design of Matrix-Metalloprotease-Selective Prodrugs” (J Med Chem, 2017)
Values belong to the compound of their own block, whether it stands above or below them. Where a SMILES comes first, the peptide text is derived from it. [ ]: non-standard residue; d: D form. The star is where a group is joined. ξ: configuration not given here. X1 = COc1cccc2c1C(=O)c1c(O)c3c(c(O)c1C2=O)C[C@](O)(C(=O)CO)C[C@H]3O[C@@H]1C[C@@H](N*)[C@H](O)[C@@H](C)O1; X2 = COc1cccc2c1C(=O)c1c(O)c3c(c(O)c1C2=O)C[C@@](O)(C(=O)CO)C[C@@H]3O[C@H]1C[C@H](N*)[C@@H](O)[C@H](C)O1; Dnp = O=[N+]([O-])c1ccc(*)c([N+](=O)[O-])c1; ξhPhe = NC(CCc1ccccc1)C(=O)O; ξCha = NC(CC1CCCCC1)C(=O)O; Cbz = O=C(OCc1ccccc1)*; Bn = c1ccc(C*)cc1

How the values were obtained:
[1] = Retention time of compound by LC-MS analysis
[2] = target: T1, Matrix metalloproteinase-14 (Homo sapiens, UniProt P50281); assay: Prodrug activation assessed as recombinant human MMP14-mediated compound cleavage at 10 uM after 12 hrs by LC-MS analysis
[3] = Prodrug activation in Balb/c immunodeficient nude mouse xenografted with human HT1080 cells assessed as half life for prodrug in tumor homogenates after 60 mins by LC-MS analysis; assay type: tissue-based, Neoplasm; settings: tissue homogenate, 1 h
Plasma = assay: Prodrug activation in Balb/c immunodeficient nude mouse xenografted with human HT1080 cells assessed as half life for prodrug in plasma after 60 mins by LC-MS analysis; assay type: cell-free; settings: 1 h
[4] = Retention time of compound by RP-HPLC analysis
U-87 MG [5] = assay: Cytotoxicity against human U87MG cells assessed as reduction in cell survival after 96 hrs by MTT assay; assay type: functional, cell-based, U-87MG ATCC
[6] = target: T2, Matrix metalloproteinase-9 (Homo sapiens, UniProt P14780); assay: Prodrug activation assessed as recombinant human MMP9-mediated compound cleavage at 10 uM after 12 hrs by LC-MS analysis
Kidney = assay: Prodrug activation in Balb/c immunodeficient nude mouse xenografted with human HT1080 cells assessed as half life for prodrug in kidney after 60 mins by LC-MS analysis; assay type: tissue-based; settings: 1 h
[7] = target: T3, 72 kDa type IV collagenase (Homo sapiens, UniProt P08253); assay: Prodrug activation assessed as recombinant human MMP2-mediated Leu-doxorubicin formation at 10 uM after 12 hrs by LC-MS analysis
Liver = assay: Prodrug activation in Balb/c immunodeficient nude mouse xenografted with human HT1080 cells assessed as half life for prodrug in liver after 60 mins by LC-MS analysis; assay type: tissue-based; settings: 1 h
U-87 MG [8] = assay: Cytotoxicity against human U87MG cells treated with MJ02 assessed as reduction in cell survival after 96 hrs in presence of MMP inhibitor GM6001 by MTT assay; assay type: functional, cell-based, U-87MG ATCC
[9] = target: T3, 72 kDa type IV collagenase; assay: Prodrug activation assessed as recombinant human MMP2-mediated Cbz-Gly-Pro-Ile-Gln-Glu-Hof formation at 10 uM after 12 hrs by LC-MS analysis
U-87 MG [10] = assay: Cytotoxicity against human U87MG cells treated with MJ02 assessed as reduction in cell survival after 96 hrs by MTT assay; assay type: functional, cell-based, U-87MG ATCC
[11] = target: T3, 72 kDa type IV collagenase; assay: Prodrug activation assessed as recombinant human MMP2-mediated Cbz-Glu-Pro-Leu-Gly formation at 10 uM after 12 hrs by LC-MS analysis
[12] = target: T3, 72 kDa type IV collagenase; assay: Prodrug activation assessed as recombinant human MMP2-mediated Ser(O-benzyl)-Tyr-Leu-doxorubicin formation at 10 uM after 12 hrs by LC-MS analysis
[13] = target: T2, Matrix metalloproteinase-9; assay: Prodrug activation assessed as recombinant human MMP9-mediated Cbz-Glu-Pro-Leu-Gly formation at 10 uM after 12 hrs by LC-MS analysis
[14] = target: T1, Matrix metalloproteinase-14; assay: Prodrug activation assessed as recombinant human MMP14-mediated Cbz-Glu-Pro-Leu-Gly metabolite at 10 uM after 12 hrs by LC-MS analysis; assay type: ADME
[15] = target: T2, Matrix metalloproteinase-9; assay: Prodrug activation assessed as recombinant human MMP9-mediated Ser(O-benzyl)-Tyr-Leu-doxorubicin formation at 10 uM after 12 hrs by LC-MS analysis
[16] = target: T1, Matrix metalloproteinase-14; assay: Prodrug activation assessed as recombinant human MMP14-mediated Ser(O-benzyl)-Tyr-Leu-doxorubicin formation at 10 uM after 12 hrs by LC-MS analysis

T2 sequence (P14780 whole entry): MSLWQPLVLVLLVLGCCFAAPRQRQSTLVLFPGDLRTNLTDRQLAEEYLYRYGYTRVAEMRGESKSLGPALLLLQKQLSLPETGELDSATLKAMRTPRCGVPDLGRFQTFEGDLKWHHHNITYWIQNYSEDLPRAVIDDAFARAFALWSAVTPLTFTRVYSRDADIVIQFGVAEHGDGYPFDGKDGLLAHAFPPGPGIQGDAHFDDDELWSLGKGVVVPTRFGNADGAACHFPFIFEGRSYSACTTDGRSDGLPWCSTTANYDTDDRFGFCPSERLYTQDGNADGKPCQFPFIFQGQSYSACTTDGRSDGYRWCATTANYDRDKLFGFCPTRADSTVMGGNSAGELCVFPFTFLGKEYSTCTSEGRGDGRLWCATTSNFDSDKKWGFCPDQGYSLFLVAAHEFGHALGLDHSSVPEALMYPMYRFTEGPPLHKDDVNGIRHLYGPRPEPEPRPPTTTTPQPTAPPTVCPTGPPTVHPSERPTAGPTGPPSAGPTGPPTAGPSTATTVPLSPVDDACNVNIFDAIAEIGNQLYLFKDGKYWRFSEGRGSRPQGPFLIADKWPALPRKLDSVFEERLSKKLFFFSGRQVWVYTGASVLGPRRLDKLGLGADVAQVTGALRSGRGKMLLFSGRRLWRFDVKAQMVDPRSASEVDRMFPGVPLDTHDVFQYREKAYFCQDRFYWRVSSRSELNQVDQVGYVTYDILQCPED
T3 sequence (P08253 whole entry): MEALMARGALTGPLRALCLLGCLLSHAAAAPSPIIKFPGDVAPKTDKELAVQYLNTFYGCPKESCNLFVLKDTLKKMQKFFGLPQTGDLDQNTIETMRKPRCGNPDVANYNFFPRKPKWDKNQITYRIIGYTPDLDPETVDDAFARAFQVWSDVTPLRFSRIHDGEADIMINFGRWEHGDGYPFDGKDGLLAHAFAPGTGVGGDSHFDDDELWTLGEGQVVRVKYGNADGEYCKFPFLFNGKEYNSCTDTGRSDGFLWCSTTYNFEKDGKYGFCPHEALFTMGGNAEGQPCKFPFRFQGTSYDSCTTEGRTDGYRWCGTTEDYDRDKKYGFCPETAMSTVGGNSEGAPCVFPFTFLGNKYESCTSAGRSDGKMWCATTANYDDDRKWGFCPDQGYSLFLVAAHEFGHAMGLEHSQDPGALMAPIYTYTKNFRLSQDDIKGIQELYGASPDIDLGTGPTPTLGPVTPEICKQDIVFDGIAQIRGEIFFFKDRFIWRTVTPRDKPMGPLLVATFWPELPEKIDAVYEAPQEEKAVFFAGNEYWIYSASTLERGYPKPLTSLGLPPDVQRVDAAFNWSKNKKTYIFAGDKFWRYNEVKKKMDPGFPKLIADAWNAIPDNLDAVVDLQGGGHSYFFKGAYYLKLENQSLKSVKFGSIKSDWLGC

SMILES: COc1cccc2c1C(=O)c1c(O)c3c(c(O)c1C2=O)C[C@@](O)(C(=O)CO)C[C@@H]3O[C@H]1C[C@H](NC(=O)[C@H](CC(C)C)NC(=O)[C@H](Cc2ccc(O)cc2)NC(=O)[C@@H](N)COCc2ccccc2)[C@@H](O)[C@H](C)O1
- Retention time [1]: 3.23 min

- Drug metabolism [2]: Metabolite_Notdetected
- t1/2 [3]: >= 8.8 min
- t1/2 (Plasma): > 1.5 h
- Drug metabolism [6]: Metabolite_Notdetected
- t1/2 (Kidney): >= 38.1 min
- Drug metabolism [7]: Metabolite_Detected
- t1/2 (Liver): >= 17 min
- Drug metabolism [9]: Metabolite_Detected
SMILES: CC[C@H](C)[C@H](NC(=O)[C@@H]1CCCN1C(=O)CNC(=O)OCc1ccccc1)C(=O)N[C@@H](CCC(N)=O)C(=O)N[C@@H](CCC(=O)O)C(=O)NC(CCc1ccccc1)C(=O)N[C@@H](CC(C)C)C(=O)N[C@@H]1C[C@@H](O[C@@H]2C[C@@](O)(C(=O)CO)Cc3c(O)c4c(c(O)c32)C(=O)c2c(OC)cccc2C4=O)O[C@H](C)[C@H]1O (stereo partly drawn) (Cbz-GPIQE[ξhPhe]L-X1)
- Retention time [4]: 3.58 min
- IC50 (U-87 MG [5]): 5 µM
- IC50 (U-87 MG [8]): > 100 µM

SMILES: O=C(O)CNC(=O)C(CC1CCCCC1)NC(=O)[C@@H]1CCCN1c1ccc([N+](=O)[O-])cc1[N+](=O)[O-] (stereo partly drawn) (Dnp-Pro-[ξCha]-Gly-OH)
- Retention time [1]: 2.3 min

SMILES: CC(C)C[C@H](NC(=O)[C@@H]1CCCN1C(=O)[C@H](CCC(=O)O)NC(=O)OCc1ccccc1)C(=O)NCC(=O)O (Cbz-EPLG-OH)
- Retention time [1]: 2.87 min

SMILES: CNc1ccccc1C(=O)NCCCC[C@H](NC(=O)[C@H](C)NC(=O)[C@H](Cc1c[nH]cn1)NC(=O)[C@H](N)CSC)C(N)=O
- Retention time [1]: 2.47 min

SMILES: COc1cccc2c1C(=O)c1c(O)c3c(c(O)c1C2=O)C[C@@](O)(C(=O)CO)C[C@@H]3O[C@H]1C[C@H](NC(=O)[C@@H](N)CC(C)C)[C@H](O)[C@H](C)O1 [LEURUBICIN]
- Retention time [1]: 2.08 min
- IC50 (U-87 MG [10]): 0.6 µM

- Drug metabolism [11]: Metabolite_Detected
- Drug metabolism [12]: Metabolite_Detected
- Drug metabolism [13]: Metabolite_Detected
- Drug metabolism [14]: Metabolite_Detected
- Drug metabolism [15]: Metabolite_Detected
- Drug metabolism [16]: Metabolite_Detected
SMILES: COc1cccc2c1C(=O)c1c(O)c3c(c(O)c1C2=O)C[C@@](O)(C(=O)CO)C[C@@H]3O[C@H]1C[C@H](NC(=O)[C@H](CC(C)C)NC(=O)[C@H](Cc2ccc(O)cc2)NC(=O)[C@H](COCc2ccccc2)NC(=O)CNC(=O)[C@H](CC(C)C)NC(=O)[C@@H]2CCCN2C(=O)[C@H](CCC(=O)O)NC(=O)OCc2ccccc2)[C@@H](O)[C@H](C)O1 (Cbz-EPLGS(Bn)YL-X2)
- Retention time [1]: 3.63 min

SMILES: COc1cccc2c1C(=O)c1c(O)c3c(c(O)c1C2=O)C[C@@](O)(C(=O)CO)C[C@@H]3O[C@H]1C[C@H](N)[C@H](O)[C@H](C)O1 [DOXORUBICIN]
- IC50 (U-87 MG [5]): 0.3 µM

SMILES: CC[C@H](C)[C@H](NC(=O)[C@@H]1CCCN1C(=O)CNC(=O)OCc1ccccc1)C(=O)N[C@@H](CCC(N)=O)C(=O)N[C@@H](CCC(=O)O)C(=O)NC(CCc1ccccc1)C(=O)O (stereo partly specified) (Cbz-GPIQE[ξhPhe]-OH)
- Retention time [1]: 2.83 min
